Legend:
Format in all cases: in vivo
corn = assay: Test Example 5: effect on crop by foliage application, plastic box (symbol c); conditions: 320 g/ha, 3 weeks after application
Outline: (§1)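 A greenhouse held between 25° C. and 30° C. was used to grow plants sown spot-wise, beneath ~1.5 cm of soil, in boxes of sterilized diluvial soil.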

[1] = test system: Echinochloa crus-galli var. crus-galli; assay: Test Example 4: herbicidal effect by soil treatment (symbol H); conditions: application herbicide amount 320 g/ha
Outline: (§2)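 Seeds were sown in sterilized diluvial soil, covered with about 1.5 cm of soil, and the soil surface was sprayed with a water-diluted emulsion of the compound at a predetermined rate. Plants grew in a greenhouse at 25° C. to 30° C.; effects were scored visually 3 weeks after application.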

Monochoria vaginalis = assay: Test Example 2: herbicidal activity, application during weed generation in submerged conditions (symbol C); conditions: Table 23; application herbicide amount 320 g/ha; grade 0-5 by criteria of Test Example 1
Outline: (§3)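 Each pot contained alluvial soil under 4 cm of water with seeds of all three weeds sown together. Following growth at 25° C. to 30° C. to the one- to two-leaf stage, the floodwater received diluted emulsion at a predetermined amount; visual assessment followed at 3 weeks.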

Abutilon theophrasti = assay: Test Example 4: herbicidal effect by soil treatment (symbol M); conditions: application herbicide amount 320 g/ha
Outline: as §2

Scirpus juncoides = assay: Test Example 2: herbicidal activity, application during weed generation in submerged conditions (symbol B); conditions: Table 23; application herbicide amount 320 g/ha; grade 0-5 by criteria of Test Example 1
Outline: as §3

Setaria viridis = assay: Test Example 5: herbicidal effect by foliage application, plastic box (symbol G); conditions: 320 g/ha, 3 weeks after application
Outline: (§4)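 Herbicide, formulated as an emulsion and diluted in water, is sprayed onto the aerial parts of 14-day seedlings. These were grown at 25° C. to 30° C. in sterilized diluvial soil; effects are graded after 3 weeks.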

Cyperus difformis = assay: Test Example 3: herbicidal effect by foliage application, Wagner pot (symbol E); conditions: application herbicide amount 320 g/ha
Outline: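 Seeds sown in alluvial soil kept under 0.1–0.5 cm water, greenhouse 25–30 °C; 14 d growth. Leaves treated by small sprayer with water-diluted emulsion at a predetermined rate. Effect graded by set scale, 3 weeks.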

soybean = assay: Test Example 5: effect on crop by foliage application, plastic box (symbol d); conditions: 320 g/ha, 3 weeks after application
Outline: as §1

[2] = test system: Echinochloa oryzacola Vasing.; assay: Test Example 1: herbicidal activity, application before weed generation in submerged conditions (symbol A); conditions: application herbicide amount 320 g/ha
Outline: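 In a flooded pot test with alluvial soil, the emulsion-formulated compound was diluted with water to a predetermined amount and applied to the floodwater immediately on the sowing day. Pots were held in a greenhouse at 25–30 °C for 3 weeks before each weed was rated.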

transplanted rice plant = assay: Test Example 1: effect on crop, application before weed generation in submerged conditions (symbol a); conditions: application herbicide amount 320 g/ha
Outline: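 Rice at 2.5 leaf stage transplanted into submerged soil (4 cm depth) sown with three weed species; herbicide applied before weed emergence.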

Amaranthus retroflexus = assay: Test Example 5: herbicidal effect by foliage application, plastic box (symbol N); conditions: 320 g/ha, 3 weeks after application
Outline: as §4

Compound	c: corn, effect on crop grade (corn)	H (Echinochloa crus-galli var. crus-galli) herbicidal effect grade [1]	Herbicidal effect grade, C: Monochoria vaginalis (Monochoria vaginalis)	M (Abutilon theophrasti) herbicidal effect grade (Abutilon theophrasti)	Herbicidal effect grade, B: Scirpus juncoides (Scirpus juncoides)	G: Setaria viridis, herbicidal effect grade (Setaria viridis)	herbicidal effect on E, grade 0-5 (Cyperus difformis)	d: soybean, effect on crop grade (soybean)	Herbicidal effect grade, A: Echinochloa oryzacola Vasing. [2]	Effect grade on crop, a: transplanted rice plant (transplanted rice plant)	N: Amaranthus retroflexus, herbicidal effect grade (Amaranthus retroflexus)	Herbicidal effect grade, H: Echinochloa crus-galli var. crus-galli [1]	Herbicidal effect grade, M: Abutilon theophrasti (Abutilon theophrasti)	E herbicidal effect grade (Cyperus difformis; Table 24)
CON=C(C)C(C(C)=NOC)C1CC(O)=C(c2c(C)cc(C)cc2C)C1=O (stereo not shown) [1-021]	0 (Herbicidal ratio of 5% or lower (almost no effect))	0 (Herbicidal ratio of 5% or lower (almost no effect))	0 (Herbicidal ratio of 5% or lower (almost no effect))	0 (Herbicidal ratio of 5% or lower (almost no effect))	0 (Herbicidal ratio of 5% or lower (almost no effect))	1 (Herbicidal ratio of 5% or higher and lower than 20%)	0 (Herbicidal ratio of 5% or lower (almost no effect))	0 (Herbicidal ratio of 5% or lower (almost no effect))	0 (Herbicidal ratio of 5% or lower (almost no effect))	0 (Herbicidal ratio of 5% or lower (almost no effect))	0 (Herbicidal ratio of 5% or lower (almost no effect))	–	–	–
C=CCON=C(C)CC1CC(O)=C(c2c(C)cc(C)cc2C)C1=O (stereo not shown) [1-018]	5 (Herbicidal ratio of 90% or more (almost completely withered))	5 (Herbicidal ratio of 90% or more (almost completely withered))	3 (Herbicidal ratio of 40% or higher and lower than 70%)	4 (Herbicidal ratio of 70% or higher and lower than 90%)	5 (Herbicidal ratio of 90% or more (almost completely withered))	5 (Herbicidal ratio of 90% or more (almost completely withered))	3 (Herbicidal ratio of 40% or higher and lower than 70%)	3 (Herbicidal ratio of 40% or higher and lower than 70%)	5 (Herbicidal ratio of 90% or more (almost completely withered))	5 (Herbicidal ratio of 90% or more (almost completely withered))	0 (Herbicidal ratio of 5% or lower (almost no effect))	–	–	–
CON=C(C)C(=O)C1CC(O)=C(c2c(C)cc(C)cc2C)C1=O (stereo not shown) [8-002]	0 (Herbicidal ratio of 5% or lower (almost no effect))	–	0 (Herbicidal ratio of 5% or lower (almost no effect))	–	0 (Herbicidal ratio of 5% or lower (almost no effect))	0 (Herbicidal ratio of 5% or lower (almost no effect))	–	0 (Herbicidal ratio of 5% or lower (almost no effect))	0 (Herbicidal ratio of 5% or lower (almost no effect))	0 (Herbicidal ratio of 5% or lower (almost no effect))	0 (Herbicidal ratio of 5% or lower (almost no effect))	2 (Herbicidal ratio of 20% or higher and lower than 40%)	0 (Herbicidal ratio of 5% or lower (almost no effect))	0 (Herbicidal ratio of 5% or lower (almost no effect))
CON=C(C)CC1CC(OC(=O)C(C)(C)CCl)=C(c2c(C)cc(C)cc2C)C1=O (stereo not shown) [1-016]	4 (Herbicidal ratio of 70% or higher and lower than 90%)	5 (Herbicidal ratio of 90% or more (almost completely withered))	3 (Herbicidal ratio of 40% or higher and lower than 70%)	5 (Herbicidal ratio of 90% or more (almost completely withered))	4 (Herbicidal ratio of 70% or higher and lower than 90%)	5 (Herbicidal ratio of 90% or more (almost completely withered))	5 (Herbicidal ratio of 90% or more (almost completely withered))	4 (Herbicidal ratio of 70% or higher and lower than 90%)	5 (Herbicidal ratio of 90% or more (almost completely withered))	5 (Herbicidal ratio of 90% or more (almost completely withered))	4 (Herbicidal ratio of 70% or higher and lower than 90%)	–	–	–
CON=C(C)CC1CC(OC(=O)C(C)(C)Oc2ccccc2)=C(c2c(C)cc(C)cc2C)C1=O (stereo not shown) [1-017]	4 (Herbicidal ratio of 70% or higher and lower than 90%)	5 (Herbicidal ratio of 90% or more (almost completely withered))	3 (Herbicidal ratio of 40% or higher and lower than 70%)	5 (Herbicidal ratio of 90% or more (almost completely withered))	4 (Herbicidal ratio of 70% or higher and lower than 90%)	5 (Herbicidal ratio of 90% or more (almost completely withered))	5 (Herbicidal ratio of 90% or more (almost completely withered))	4 (Herbicidal ratio of 70% or higher and lower than 90%)	5 (Herbicidal ratio of 90% or more (almost completely withered))	5 (Herbicidal ratio of 90% or more (almost completely withered))	4 (Herbicidal ratio of 70% or higher and lower than 90%)	–	–	–
CC(CC1CC(O)=C(c2c(C)cc(C)cc2C)C1=O)=NOCc1ccccn1 (stereo not shown) [1-022]	3 (Herbicidal ratio of 40% or higher and lower than 70%)	5 (Herbicidal ratio of 90% or more (almost completely withered))	3 (Herbicidal ratio of 40% or higher and lower than 70%)	0 (Herbicidal ratio of 5% or lower (almost no effect))	5 (Herbicidal ratio of 90% or more (almost completely withered))	5 (Herbicidal ratio of 90% or more (almost completely withered))	4 (Herbicidal ratio of 70% or higher and lower than 90%)	3 (Herbicidal ratio of 40% or higher and lower than 70%)	5 (Herbicidal ratio of 90% or more (almost completely withered))	5 (Herbicidal ratio of 90% or more (almost completely withered))	1 (Herbicidal ratio of 5% or higher and lower than 20%)	–	–	–
CC(CC1CC(O)=C(c2c(C)cc(C)cc2C)C1=O)=NOCc1ccccc1 (stereo not shown) [1-020]	1 (Herbicidal ratio of 5% or higher and lower than 20%)	5 (Herbicidal ratio of 90% or more (almost completely withered))	2 (Herbicidal ratio of 20% or higher and lower than 40%)	3 (Herbicidal ratio of 40% or higher and lower than 70%)	3 (Herbicidal ratio of 40% or higher and lower than 70%)	5 (Herbicidal ratio of 90% or more (almost completely withered))	2 (Herbicidal ratio of 20% or higher and lower than 40%)	0 (Herbicidal ratio of 5% or lower (almost no effect))	5 (Herbicidal ratio of 90% or more (almost completely withered))	5 (Herbicidal ratio of 90% or more (almost completely withered))	–	–	–	–

Reference: patent publication US11000033B2, “Ketone or oxime compound, and herbicide” (NISSAN CHEMICAL CORPORATION, priority 2014, dated 2021)
